How the values were obtained:
Assay type in all cases: cell-based
[1] = system: primary human NSCLC tumors (dissociated cells); test: TCA: Compound B-1 with radiation (1-16 Gy), primary NSCLC tumors; parameters: Average Bliss score: scale not given here
Protocol: (§1) In both studies, cell viability was assessed after 6 days in culture. Statistical analysis of the combination matrix was performed to assess whether synergy, additivity, or antagonism of the combination treatments were observed.
(§2) Materials: Primary patient samples (See Tables 16 and 17, below) were excised from mice when they reached 500 mg to 1000 mg in size and processed immediately, or after overnight shipment. Tumors were serially passaged by subcutaneous implantation of 50 mg to 150 mg fragments into the flanks of immunocompromised (nude) mice. Tumors were used within the first 5 or 7 passages.
(§3) Tumor Chemosensitivity Assay (TCA): Primary tumor samples were grown and serially passaged in immunocompromised mice. Tumors were mechanically dissociated into small fragments (1 mm to 2 mm) with scalpels in phosphate buffered saline (PBS or RPMI) and centrifuged at 200×g for 5 minutes at room temperature in 50 mL centrifuge tubes. Samples were resuspended in 10 mL of cell dissociation reagent and enzymatically digested with mechanical agitation for 1 to 3 hours at 37° C., 5% CO2 to a single cell suspension. Ten mL of complete RPMI-1640 media was added to the cell mixture and pipetted up and down 4 to 5 times. The mixture was then passed through a 70 μm or 100 μm mesh strainer to remove undigested tumor. The filtrate was then centrifuged 200×g for 5 minutes at room temperature and resuspended in 20 mL complete RPMI-1640. This cell suspension was slowly layered onto 20 mL of room temperature Histopaque and centrifuged at 400×g for 15 minutes at room temperature without a brake. The interface was transferred to a new 50 mL centrifuge tube and 15 mL of complete RPMI-1640 was added. This suspension was centrifuged at 200×g at room temperature, and the resulting pellet was resuspended in 10 mL of complete PC-1 media, except for pancreatic tumors in which case Pancreatic Medium was used. Cells were diluted in Trypan blue, and viable cells that excluded the dye were counted. Only the larger, tumor cells were included in the cell count. Cells were diluted in complete PC-1 or Pancreatic media, as appropriate for the cells, and were plated at 15,000 to 20,000 cells per well in 100-135 μL in ultra-low attachment U-bottom plates.
(§4) Compound Addition: For these studies, a 10 mM stock of the DNA-PK inhibitor (Compound B-1 or Compound B-2) was made in DMSO and used to add to cells from most tumors with HP D300 Digital Dispenser (Tecan US, Morrisville, NC, USA), or diluted into the appropriate media (PC-1 or pancreatic media) as a 5-10× stock and added to cells (OVX001 and ENX001, 005). PC-1, pancreatic media, and chemotherapeutics were also added so that final well volume was 150 μL. Doxorubicin was made as DMSO stock of 1 or 10 mM and added to cells for most tumors with HP D300 Digital Dispenser, or diluted into PC-1 as 5-10× stock and added to cells (OVX001 and ENX001, 005). Cisplatin (cis-diammine platinum(II), dichloride) was prepared fresh to 10 mM in warm (60° C.) distilled water and diluted in PC-1 as a 5-10× stock. […] Different starting concentrations, dose ranges, and number of doses were used for each experiment based on the response data available at the time.
In radiation experiments, a range of 1-16 Gy was administered using a cesium-137 source (GammaCell 40 Exactor, MDS Nordion, Ontario, Canada). These experiments were designed as a 6×5 matrix in triplicate. Each point of a 4-point concentration range of 0.15, 0.73, 1.5 and 2.2 μM Compound B-1 plus a ‘no treatment’ control in triplicate were added to 6 individual plates. The matrix was then assembled by exposure of each plate to 0, 1, 2, 4, 8, or 16 Gy of radiation.
Cells were cultured at 37° C., 5% CO2, 95% air and 100% relative humidity.
Viability Determination: Six days after compound addition, 75 μL of CellTiterGlo (prepared according to manufacturer's protocol) was added to each well of the compound titration plates. […]

[2] = system: primary human hepatocellular carcinoma (HCC) tumor; test: TCA: Compound B-1 with doxorubicin hydrochloride, primary HCC tumor; settings: tumor L090923, Liver
Protocol: as §1, §2
Tumor Chemosensitivity Assay (TCA): Primary tumor samples were grown and serially passaged in immunocompromised mice. Tumors were mechanically dissociated into small fragments (1 mm to 2 mm) with scalpels in phosphate buffered saline (PBS or RPMI) and centrifuged at 200×g for 5 minutes at room temperature in 50 mL centrifuge tubes. Samples were resuspended in 10 mL of cell dissociation reagent and enzymatically digested with mechanical agitation for 1 to 3 hours at 37° C., 5% CO2 to a single cell suspension. Ten mL of complete RPMI-1640 media was added to the cell mixture and pipetted up and down 4 to 5 times. The mixture was then passed through a 70 μm or 100 μm mesh strainer to remove undigested tumor. […] Cells were diluted in Trypan blue, and viable cells that excluded the dye were counted. […]

[3] = system: primary human tumors (NSCLC, esophageal, gastric); test: TCA: Compound B-1 with cisplatin, primary tumors; parameters: Average Bliss score: scale not given here
Protocol: as §1, §2, §3, §4
(§5) For bleomycin experiments, combinations with Compound B-1 at all concentrations were run in triplicate. A 6×3 matrix was designed on one plate, consisting of a 2-point concentration range of 0.73 μM and 2.2 μM Compound B-1 plus no treatment control, in 3 columns each of 6 wells. Bleomycin (plus ‘no treatment’ control) was added to 9 wells in rows of this plate. Similar 6×3 matrices were set up for additional agents with different starting concentrations for compound dilutions. For cisplatin experiments the starting concentration was 30 μM which was diluted 1:3. […] For doxorubicin hydrochloride experiments the starting concentration was 5 μM doxorubicin which was diluted 1:3. For gemcitabine experiments the starting concentration was 5 μM gemcitabine which was diluted 1:3. […]

[4] = system: primary human tumors (NSCLC, SCLC); test: TCA: Compound B-1 with etoposide, primary lung tumors
Protocol: as §1, §2, §3, §4, §5

CNC(=O)c1ccnc2c([C@H](C)CNc3cc(-c4cnc(C)nc4)ncn3)cccc12 [Compound B-1]
tumors that showed synergy or additivity ([1]; 9 NSCLC tumors): 100%
tumors that showed strong synergy ([1]; three of 9 NSCLC tumors): 33%
Average Bliss score ([1]; tumor OD26131, Lung (NSCLC)): 12
Synergy/Additivity/Antagonism ([1]; tumor OD26131, Lung (NSCLC)): Strongly Synergistic (greater than 10 are considered strongly synergistic)
Average Bliss score ([1]; tumor OD26749, Lung (NSCLC)): 7
Synergy/Additivity/Antagonism ([1]; tumor OD26749, Lung (NSCLC)): Synergistic (greater than 5 are considered synergistic)
Average Bliss score ([1]; tumor OD29498, Lung (NSCLC)): 2
Synergy/Additivity/Antagonism ([1]; tumor OD29498, Lung (NSCLC)): Additive (Values between 5 and −5 are considered additive)
Average Bliss score ([1]; tumor OD33117, Lung (NSCLC)): 9
Synergy/Additivity/Antagonism ([1]; tumor OD33117, Lung (NSCLC)): Synergistic (greater than 5 are considered synergistic)
Average Bliss score ([1]; tumor OD33966, Lung (NSCLC)): 8
Synergy/Additivity/Antagonism ([1]; tumor OD33966, Lung (NSCLC)): Synergistic (greater than 5 are considered synergistic)
Average Bliss score ([1]; tumor OD35982, Lung (NSCLC)): 5
Synergy/Additivity/Antagonism ([1]; tumor OD35982, Lung (NSCLC)): Additive (Values between 5 and −5 are considered additive)
Average Bliss score ([1]; tumor OD36088, Lung (NSCLC)): 14
Synergy/Additivity/Antagonism ([1]; tumor OD36088, Lung (NSCLC)): Strongly Synergistic (greater than 10 are considered strongly synergistic)
Average Bliss score ([1]; tumor TS110310, Lung (NSCLC)): 16
Synergy/Additivity/Antagonism ([1]; tumor TS110310, Lung (NSCLC)): Strongly Synergistic (greater than 10 are considered strongly synergistic)
Average Bliss score ([1]; tumor YAS111611, Lung (NSCLC)): 1
Synergy/Additivity/Antagonism ([1]; tumor YAS111611, Lung (NSCLC)): Additive (Values between 5 and −5 are considered additive)
Average Bliss score [2]: 4
tumors that showed additivity or synergy ([3]; nine of 10 tumors): 90%
tumors that demonstrated antagonism ([3]; one of 10 tumors): 10%
Average Bliss score ([3]; tumor ESX005, Esophageal): 2
Synergy/Additivity/Antagonism ([3]; tumor ESX005, Esophageal): Additive (Values between 5 and −5 are considered additive)
Average Bliss score ([3]; tumor ESX008, Esophageal): 1
Synergy/Additivity/Antagonism ([3]; tumor ESX008, Esophageal): Additive (Values between 5 and −5 are considered additive)
Average Bliss score ([3]; tumor GAX001, Gastric): 14
Synergy/Additivity/Antagonism ([3]; tumor GAX001, Gastric): Strongly Synergistic (greater than 10 are considered strongly synergistic)
Average Bliss score ([3]; tumor GAX007, Gastric): 2
Synergy/Additivity/Antagonism ([3]; tumor GAX007, Gastric): Additive (Values between 5 and −5 are considered additive)
Average Bliss score ([3]; tumor GAX027, Gastric): −3
Synergy/Additivity/Antagonism ([3]; tumor GAX027, Gastric): Additive (Values between 5 and −5 are considered additive)
Average Bliss score ([3]; tumor OD33117, Lung (NSCLC)): 6
Synergy/Additivity/Antagonism ([3]; tumor OD33117, Lung (NSCLC)): Synergistic (greater than 5 are considered synergistic)
Average Bliss score ([3]; tumor OD33966, Lung (NSCLC)): −1
Synergy/Additivity/Antagonism ([3]; tumor OD33966, Lung (NSCLC)): Additive (Values between 5 and −5 are considered additive)
Average Bliss score ([3]; tumor OD36088, Lung (NSCLC)): 6
Synergy/Additivity/Antagonism ([3]; tumor OD36088, Lung (NSCLC)): Synergistic (greater than 5 are considered synergistic)
Average Bliss score ([3]; tumor TS110310, Lung (NSCLC)): −3
Synergy/Additivity/Antagonism ([3]; tumor TS110310, Lung (NSCLC)): Additive (Values between 5 and −5 are considered additive)
Average Bliss score ([3]; tumor YAS111611, Lung (NSCLC)): −6
Synergy/Additivity/Antagonism ([3]; tumor YAS111611, Lung (NSCLC)): Antagonistic (less than −5 are considered antagonistic)
tumors that showed strong synergy [4]: 100%
Average Bliss score ([4]; tumor LUX013, Lung (SCLC)): 15
Synergy/Additivity/Antagonism ([4]; tumor LUX013, Lung (SCLC)): Strongly Synergistic (greater than 10 are considered strongly synergistic)
Average Bliss score ([4]; tumor LUX031, Lung (SCLC)): 16
Synergy/Additivity/Antagonism ([4]; tumor LUX031, Lung (SCLC)): Strongly Synergistic (greater than 10 are considered strongly synergistic)
Average Bliss score ([4]; tumor OD26749, Lung (NSCLC)): 19
Synergy/Additivity/Antagonism ([4]; tumor OD26749, Lung (NSCLC)): Strongly Synergistic (greater than 10 are considered strongly synergistic)
Average Bliss score ([4]; tumor OD29498, Lung (NSCLC)): 13
Synergy/Additivity/Antagonism ([4]; tumor OD29498, Lung (NSCLC)): Strongly Synergistic (greater than 10 are considered strongly synergistic)
